This note sets out measurements from patent publication US10844354B2, “Cardiomyocyte maturation” (Ncardia B.V., priority 2014, dated 2020).

Structures are written as SMILES.

This experiment has as its system stem-cell derived cardiomyocytes. Put plainly: Perforated patch clamp action potential measurement of spontaneously beating stem-cell derived cardiomyocytes. It is filed as cell-based, human. Conditions: induced pluripotent stem cell derived cardiomyocytes. As to the method:
Differentiated (fetal-like/immature) human stem-cell derived cardiomyocytes were subsequently cultured and allowed to mature as described below, although any other method in the art may suitable be used. Tissue culture plastic was coated using Matrigel (Corning) at a concentration of 1/100 in DMEM, for 45 min at room temperature. A single cell suspension coming from dissociated embryoid bodies, dissociated monolayers or (commercially obtained) frozen (fetal-like (immature)) stem-cell derived cardiomyocytes were seeded at an appropriate density on matrigel coated tissue culture plastic (e.g. in 20-40 k cells per well of a 96-well plate, e.g. 20-200 k per well of a 12 well plate). On day 1 following plating, the foetal-like (immature) cardiomyocytes were exposed to a culture medium composition of the invention, which consists of a serum-free culture medium composition comprising 50 ng/ml of T3 (Sigma T6397), 2 mM of carnitine, 5 mM of creatine, 5 mM of taurine, 2.2 microgram/ml of cholesterol, 0.1 microgram/ml of linoleic acid, 0.1 microgram/ml of linolenic acid, 0.1 microgram/ml of palmitic acid (lipids, for example, from Gibco 11905), 10 mg/ml of insulin, 5.5 mg/ml of transferrin, 0.0067 mg/ml of selenium (insulin, transferrin and selenium from e.g. Gibco 51500), 0.01% of trace element mix B (as described herein; Cellgro 99-175-CL), 0.1% of trace element mix C (as described herein; Cellgro 99-176-CL), 0.5 w/w % of antibiotics (penicillin-streptomycin mixture commercially available Gibco (Gibco 12070; 5000 U/ML), 0.05 mg/ml ascorbic acid, 2 mM of Glutamax supplement (i.e. L-alanyl-L-glutamine dipeptide in 0.85% NaCl, commercially available at Gibco, e.g. Gibco 35050), 0.125 w/w % polyvinylalcohol (PVA), 450 nM of alpha monothiolglycerol (MTG) (commercially available), 025 w/w %/o BSA (Bovostar BSAS1.0) in 46.5% (w/w) IMDM (Gibco 21056) and 46.5% (w/w) HAM F-12 with glutamax (Gibco 31765). All concentrations are expressed as final concentration in the culture medium composition. This step was repeated every 2-3 days. In those experiments that also use thyroid hormone or a thyroid hormone analog, treatment with the culture medium composition as taught herein comprising e.g. T3 started either at day 1, day 3 or day 7 post plating.
At day 10 dbcAMP was added to a final concentration of 0.5 mM and the cell were further cultured. Action potential measurements of control and dbcAMP treated cells were performed using the patch clamp technique at 24, 48 and 72-hours post addition of the cAMP-raising compound.
Electrophysiology of the cells treated with the cAMP-raising compound or not was determined by standard techniques in the art, in particular with the method as described by for example, Bellin et al. (EMBO J. 2013; 32(24): 3161-3175), with the modification that in the examples provide herein spontaneous activity of the stem-cell derived cardiomyocytes was determined and no electric stimulation was required, although measurement may, as the skilled person knows, also be done under conditions of stimulation. Action potentials from small groups of cells (5-10 cells) were measured with the perforated patch clamp technique using an Axopatch 200b amplifier (Molecular Devices) and low resistance patch pipettes (1.5-2.5 MΩ). Data acquisition and analyses of action potentials were performed with pClamp 10 (axon instruments) and custom made software. Action Potentials were corrected for the calculated liquid junction potential (−15 mV).
Action potential from spontaneous beating cells were measured at 37±0.20 C using a modified Tyrode's solution containing (in mM): 140 NaCl, 5.4 KCl, 1.8 CaCl2, 1.0 MgCl2, 5.5 glucose, 5.0 HEPES; pH7.2 (NaOH).
The pipette solution contained (in mM): 125 K-gluconate, 20 KCl, 5 NaCl, 0.22 amphotericin-B, 10 HEPES; pH 7.2 (KOH). […]
A general note: The patch-clamp technique gives a direct electrical read-out from membranes.

Turning to `CCCC(=O)Nc1ncnc2c1ncn2[C@@H]1O[C@@H]2COP(=O)(O)O[C@H]2[C@H]1OC(=O)CCC` [dbcAMP, N6,2′-O-dibutyryladenosine 3′,5′-cyclic monophosphate], where the note is “0.5 mM dbcAMP for 24, 48 and 72 hrs vs non-treated, FIG. 1”, the upstroke velocity entry is “improved the upstroke velocity dramatically”. The “resting membrane potential (liquid junction potential corrected)” value (0.5 mM dbcAMP for 24, 48 and 72 hrs vs non-treated, FIG. 2) is “improved the resting membrane potential dramatically”. Also, the representative action potentials result reads like this: (dbcAMP for 24, 48 and 72 hrs vs non-treated, FIG. 3) “action potentials that are more adult cardiomyocyte like”; (dbcAMP for 72 hrs vs non-treated, FIG. 6) “action potentials that are more adult cardiomyocyte like”. Moreover, where the note is “dbcAMP for 24, 48 and 72 hrs vs non-treated, FIG. 4”, the amplitude entry is “improves the amplitude”. The repolarization parameters result (dbcAMP for 24, 48 and 72 hrs vs non-treated, FIG. 5) is “improves the repolarization parameters”.
